One may read the Kd as the free concentration of one partner at which half of the binding sites on the other are occupied at equilibrium, for simple one-to-one binding.

The target of the assay is human TYK2 (JH2domain-pseudokinase) (Homo sapiens (Human), UniProt P29597). Put plainly: TYK2 JH2 Domain Binding Assay (KINOMEscan). The note with it: Table 4, JH2 binding assay; read-out: JH2 Kd.
Chain of human TYK2 (JH2domain-pseudokinase) (P29597 556-888): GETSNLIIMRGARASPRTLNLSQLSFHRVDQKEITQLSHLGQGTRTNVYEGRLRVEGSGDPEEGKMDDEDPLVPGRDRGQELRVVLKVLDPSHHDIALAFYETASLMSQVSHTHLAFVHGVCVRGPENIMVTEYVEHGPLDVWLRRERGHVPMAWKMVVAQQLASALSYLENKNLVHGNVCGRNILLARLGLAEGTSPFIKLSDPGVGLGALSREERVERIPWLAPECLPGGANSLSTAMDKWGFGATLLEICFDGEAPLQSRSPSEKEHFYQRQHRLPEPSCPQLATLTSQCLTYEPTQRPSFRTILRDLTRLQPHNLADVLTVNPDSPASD

With `COc1c(Cl)cccc1Nc1cc(Nc2cc(CO)ccn2)nc2[nH]n(C)c(=O)c12` [Compound I-101, 4-((3-chloro-2-methoxyphenyl)amino)-6-((4-(hydroxymethyl)pyridin-2-yl)amino)-2-methyl-1,2-dihydro-3H-pyrazolo[3,4-b]pyridin-3-one], the Kd fell in the range of 1 to 10 nM.
For the compound `COc1c(Nc2cc(NC(=O)C3CC3)nc3[nH]n(C)c(=O)c23)cccc1C(N)=O` [Compound I-102, 3-((6-(cyclopropanecarboxamido)-2-methyl-3-oxo-2,3-dihydro-1H-pyrazolo[3,4-b]pyridin-4-yl)amino)-2-methoxybenzamide], the Kd is over 10 nM.
With `COc1c(Nc2cc(Nc3cc(C)nc(C)n3)nc3[nH]n(C)c(=O)c23)cccc1C(N)=O` [Compound I-103, 3-((6-((2,6-dimethylpyrimidin-4-yl)amino)-2-methyl-3-oxo-2,3-dihydro-1H-pyrazolo[3,4-b]pyridin-4-yl)amino)-2-methoxybenzamide], the Kd was over 10 nM.
Turning to `COCc1ccc(Nc2cc(Nc3ccc(OC)c(C(F)(F)F)n3)nc3[nH]n(C)c(=O)c23)c(OC)c1` [Compound I-104, 4-((2-methoxy-4-(methoxymethyl)phenyl)amino)-6-((5-methoxy-6-(trifluoromethyl)pyridin-2-yl)amino)-2-methyl-1,2-dihydro-3H-pyrazolo[3,4-b]pyridin-3-one], the Kd is over 10 nM.
The value for `COc1c(Cl)cccc1Nc1cc(Nc2ccc(C)nn2)nc2[nH]n(C)c(=O)c12` [Compound I-105, 4-((3-chloro-2-methoxyphenyl)amino)-2-methyl-6-((6-methylpyridazin-3-yl)amino)-1,2-dihydro-3H-pyrazolo[3,4-b]pyridin-3-one] was 1 to 10 nM; that for `COc1c(Nc2cc(Nc3cc(C)c(F)cn3)nc3[nH]n(C)c(=O)c23)cccc1C(N)=O` [Compound I-106] was 1 to 10 nM; that for `Cc1cc(Nc2cc(Nc3ccccc3S(C)(=O)=O)c3c(=O)n(C)[nH]c3n2)ncc1F` [Compound I-107, 6-((5-fluoro-4-methylpyridin-2-yl)amino)-2-methyl-4-((2-(methylsulfonyl)phenyl)amino)-1,2-dihydro-3H-pyrazolo[3,4-b]pyridin-3-one] was 0.1 to 0.5 nM.
The result for `Cc1cc(Nc2cc(Nc3ccccc3S(C)(=O)=O)c3c(=O)n(C)[nH]c3n2)nc(C)n1` [Compound I-108, 6-((2,6-dimethylpyrimidin-4-yl)amino)-2-methyl-4-((2-(methylsulfonyl)phenyl)amino)-1,2-dihydro-3H-pyrazolo[3,4-b]pyridin-3-one] reads 0.1 to 0.5 nM; that for `Cc1ccc(Nc2cc(Nc3ccccc3S(C)(=O)=O)c3c(=O)n(C)[nH]c3n2)nn1` [Compound I-109, 2-methyl-6-((6-methylpyridazin-3-yl)amino)-4-((2-(methylsulfonyl)phenyl)amino)-1,2-dihydro-3H-pyrazolo[3,4-b]pyridin-3-one], 0.1 to 0.5 nM.
As for `COCc1ccnc(Nc2cc(Nc3ccccc3S(C)(=O)=O)c3c(=O)n(C)[nH]c3n2)c1` [Compound I-110, 6-((4-(methoxymethyl)pyridin-2-yl)amino)-2-methyl-4-((2-(methylsulfonyl)phenyl)amino)-1,2-dihydro-3H-pyrazolo[3,4-b]pyridin-3-one], the Kd is 1 to 10 nM.
`Cc1ccc(Nc2cc(Nc3ccccc3S(C)(=O)=O)c3c(=O)n(C)[nH]c3n2)nc1` [Compound I-111, 2-methyl-6-((5-methylpyridin-2-yl)amino)-4-((2-(methylsulfonyl)phenyl)amino)-1,2-dihydro-3H-pyrazolo[3,4-b]pyridin-3-one]: the Kd lay within 0.1 to 0.5 nM.
Regarding `Cn1[nH]c2nc(Nc3cccc(C#N)n3)cc(Nc3ccccc3S(C)(=O)=O)c2c1=O` [Compound I-112, 6-((2-methyl-4-((2-(methylsulfonyl)phenyl)amino)-3-oxo-2,3-dihydro-1H-pyrazolo[3,4-b]pyridin-6-yl)amino)picolinonitrile], the Kd is under 0.1 nM.
For the compound `Cn1[nH]c2nc(Nc3cccc(C(F)(F)F)n3)cc(Nc3ccccc3S(C)(=O)=O)c2c1=O` [Compound I-113, 2-methyl-4-((2-(methylsulfonyl)phenyl)amino)-6-((6-(trifluoromethyl)pyridin-2-yl)amino)-1,2-dihydro-3H-pyrazolo[3,4-b]pyridin-3-one], the Kd was in the range of 0.1 to 0.5 nM.
In the case of `CCNC(=O)c1ccc(Nc2cc(NC(=O)C3CC3)nc3[nH]n(C)c(=O)c23)c(OC)c1` [Compound I-114, 4-((6-(cyclopropanecarboxamido)-2-methyl-3-oxo-2,3-dihydro-1H-pyrazolo[3,4-b]pyridin-4-yl)amino)-N-ethyl-3-methoxybenzamide], the Kd was 1 to 10 nM.
Consider `COc1c(Cl)cccc1Nc1cc(Nc2ccc(N3CCOCC3)cn2)nc2[nH]n(C)c(=O)c12` [Compound I-115, 4-((3-chloro-2-methoxyphenyl)amino)-2-methyl-6-((5-morpholinopyridin-2-yl)amino)-1,2-dihydro-3H-pyrazolo[3,4-b]pyridin-3-one], for which the Kd lay in the range of 1 to 10 nM.
On to `COc1c(Cl)cccc1Nc1cc(Nc2cncc(C#N)n2)nc2[nH]n(C)c(=O)c12` [Compound I-117, 6-((4-((3-chloro-2-methoxyphenyl)amino)-2-methyl-3-oxo-2,3-dihydro-1H-pyrazolo[3,4-b]pyridin-6-yl)amino)pyrazine-2-carbonitrile], for which the Kd was over 10 nM.
The result for `Cn1[nH]c2nc(Nc3ccc(N4CCCCC4)cn3)cc(Nc3ccccc3S(C)(=O)=O)c2c1=O` [Compound I-118, 2-methyl-4-((2-(methylsulfonyl)phenyl)amino)-6-((5-(piperidin-1-yl)pyridin-2-yl)amino)-1,2-dihydro-3H-pyrazolo[3,4-b]pyridin-3-one] reads over 10 nM; that for `Cn1[nH]c2nc(Nc3cncc(C#N)n3)cc(Nc3ccccc3S(C)(=O)=O)c2c1=O` [Compound I-119, 6-((2-methyl-4-((2-(methylsulfonyl)phenyl)amino)-3-oxo-2,3-dihydro-1H-pyrazolo[3,4-b]pyridin-6-yl)amino)pyrazine-2-carbonitrile], 1 to 10 nM; that for `COc1c(Nc2cc(Nc3cc(C)c(F)cn3)nc3[nH]n(C)c(=O)c23)cccc1-c1ccn(C)n1` [Compound I-120, 6-((5-fluoro-4-methylpyridin-2-yl)amino)-4-((2-methoxy-3-(1-methyl-1H-pyrazol-3-yl)phenyl)amino)-2-methyl-1,2-dihydro-3H-pyrazolo[3,4-b]pyridin-3-one], 1 to 10 nM.
For `COc1c(Nc2cc(Nc3ccc(C)nn3)nc3[nH]n(C)c(=O)c23)cccc1-c1ccn(C)n1` [Compound I-121, 4-((2-methoxy-3-(1-methyl-1H-pyrazol-3-yl)phenyl)amino)-2-methyl-6-((6-methylpyridazin-3-yl)amino)-1,2-dihydro-3H-pyrazolo[3,4-b]pyridin-3-one], the Kd fell in the range of 0.5 to 1 nM.
The result for `COc1c(Nc2cc(Nc3cccc(C#N)n3)nc3[nH]n(C)c(=O)c23)cccc1-c1ccn(C)n1` [Compound I-122, 6-((4-((2-methoxy-3-(1-methyl-1H-pyrazol-3-yl)phenyl)amino)-2-methyl-3-oxo-2,3-dihydro-1H-pyrazolo[3,4-b]pyridin-6-yl)amino)picolinonitrile] reads 0.1 to 0.5 nM.

For the origin of these results see patent publication US10323036B2 (Nimbus Lakshmi, Inc., priority 2016, dated 2019).
